Results taken from the kinase profiling compilation of Christmann-Franck et al. (2016).
Where “and” joins values, the source holds several entries; their conditions need not be identical. Identical values can stand only once.

What was measured:
Test in all cases: radiometric filter-binding kinase assay, Kinase HotSpot
Conditions in all cases: compound 0.5 µM; ATP 10 µM
CHEK2 (human) = CHEK2 (human) (UniProt O96017)
EPHA5 (human) = EPHA5 (human) (UniProt P54756)
DAPK3 (human) = DAPK3 (human) (UniProt O43293)
FGFR4 (human) = FGFR4 (human) (UniProt P22455)
GSK3B (human) = GSK3B (human) (UniProt P49841)
LYN (human) = LYN (human) (UniProt P07948)
SRC (human) = SRC (human) (UniProt P12931)
DYRK2 (human) = DYRK2 (human) (UniProt Q92630)
CSNK2A1 (human) = CSNK2A1 (human) (UniProt P68400)
MAP3K8 (human) = MAP3K8 (human) (UniProt P41279)
BTK (human) = BTK (human) (UniProt Q06187)
JAK3 JH1 JH2 (human) = JAK3 JH1 JH2 (human) (UniProt P52333)
MST1R (human) = MST1R (human) (UniProt Q04912)
MLTK (human) = MLTK (human) (UniProt Q9NYL2)
MAPK12 (human) = MAPK12 (human) (UniProt P53778)
ULK3 (human) = ULK3 (human) (UniProt Q6PHR2)
NEK3 (human) = NEK3 (human) (UniProt P51956)
IRAK4 (human) = IRAK4 (human) (UniProt Q9NWZ3)
FGFR2 (human) = FGFR2 (human) (UniProt P21802)
STK3 (human) = STK3 (human) (UniProt Q13188)
CSK (human) = CSK (human) (UniProt P41240)
BMX (human) = BMX (human) (UniProt P51813)
FER (human) = FER (human) (UniProt P16591)
PKN1 (human) = PKN1 (human) (UniProt Q16512)
EPHB4 (human) = EPHB4 (human) (UniProt P54760)
CDK6 CCND3 (human) = CDK6 CCND3 (human) (UniProt P30281+Q00534)
GRK7 (human) = GRK7 (human) (UniProt Q8WTQ7)
GRK4 (human) = GRK4 (human) (UniProt P32298)
PNCK (human) = PNCK (human) (UniProt Q6P2M8)
PRKG1 (human) = PRKG1 (human) (UniProt Q13976)
AURKA (human) = AURKA (human) (UniProt O14965)
RPS6KA4 KD2 (human) = RPS6KA4 KD2 (human) (UniProt O75676)
TLK2 (human) = TLK2 (human) (UniProt Q86UE8)
DMPK (human) = DMPK (human) (UniProt Q09013)
MARK2 (human) = MARK2 (human) (UniProt Q7KZI7)
PLK1 (human) = PLK1 (human) (UniProt P53350)
RPS6KA2 KD1 KD2 (human) = RPS6KA2 KD1 KD2 (human) (UniProt Q15349)
STK10 (human) = STK10 (human) (UniProt O94804)
HIPK1 (human) = HIPK1 (human) (UniProt Q86Z02)
TYRO3 (human) = TYRO3 (human) (UniProt Q06418)
MYLK (human) = MYLK (human) (UniProt Q15746)
SGK2 (human) = SGK2 (human) (UniProt Q9HBY8)

Sequence of AURKA (human) (O14965 whole entry, looked up): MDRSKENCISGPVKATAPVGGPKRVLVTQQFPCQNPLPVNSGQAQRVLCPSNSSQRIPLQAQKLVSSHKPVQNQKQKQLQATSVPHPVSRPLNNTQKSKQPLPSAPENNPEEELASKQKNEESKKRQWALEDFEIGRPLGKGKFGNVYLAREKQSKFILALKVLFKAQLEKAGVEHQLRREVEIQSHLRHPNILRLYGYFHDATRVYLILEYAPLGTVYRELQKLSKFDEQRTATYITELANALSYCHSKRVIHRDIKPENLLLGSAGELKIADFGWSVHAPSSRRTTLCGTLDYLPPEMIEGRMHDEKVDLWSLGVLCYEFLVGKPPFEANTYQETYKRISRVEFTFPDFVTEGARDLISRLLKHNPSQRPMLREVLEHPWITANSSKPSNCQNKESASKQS
Sequence of EPHB4 (human) (P54760 whole entry, looked up): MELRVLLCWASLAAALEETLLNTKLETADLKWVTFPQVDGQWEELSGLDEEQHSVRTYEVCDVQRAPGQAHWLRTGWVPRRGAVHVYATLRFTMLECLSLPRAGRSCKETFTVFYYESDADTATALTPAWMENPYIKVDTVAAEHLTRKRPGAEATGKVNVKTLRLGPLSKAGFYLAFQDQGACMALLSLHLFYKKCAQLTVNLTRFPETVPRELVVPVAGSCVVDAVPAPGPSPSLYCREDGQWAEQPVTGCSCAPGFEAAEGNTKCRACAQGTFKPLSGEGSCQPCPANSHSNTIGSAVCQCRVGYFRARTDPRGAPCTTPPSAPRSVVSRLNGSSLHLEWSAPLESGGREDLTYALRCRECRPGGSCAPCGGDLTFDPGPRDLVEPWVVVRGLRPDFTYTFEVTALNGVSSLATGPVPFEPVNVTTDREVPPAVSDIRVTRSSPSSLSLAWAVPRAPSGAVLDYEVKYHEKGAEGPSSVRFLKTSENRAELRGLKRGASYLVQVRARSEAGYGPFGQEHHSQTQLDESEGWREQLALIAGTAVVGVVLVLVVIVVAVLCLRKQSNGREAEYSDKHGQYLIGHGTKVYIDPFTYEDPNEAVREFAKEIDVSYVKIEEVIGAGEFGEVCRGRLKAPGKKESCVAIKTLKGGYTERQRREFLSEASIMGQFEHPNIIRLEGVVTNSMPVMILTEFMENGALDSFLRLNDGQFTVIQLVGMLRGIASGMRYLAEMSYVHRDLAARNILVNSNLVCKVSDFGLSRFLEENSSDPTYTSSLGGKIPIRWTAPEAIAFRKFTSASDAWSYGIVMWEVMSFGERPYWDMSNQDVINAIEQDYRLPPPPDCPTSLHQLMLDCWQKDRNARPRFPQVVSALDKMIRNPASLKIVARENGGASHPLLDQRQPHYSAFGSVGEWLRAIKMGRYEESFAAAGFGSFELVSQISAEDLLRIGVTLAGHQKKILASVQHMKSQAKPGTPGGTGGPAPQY
Sequence of MAP3K8 (human) (P41279 whole entry, looked up): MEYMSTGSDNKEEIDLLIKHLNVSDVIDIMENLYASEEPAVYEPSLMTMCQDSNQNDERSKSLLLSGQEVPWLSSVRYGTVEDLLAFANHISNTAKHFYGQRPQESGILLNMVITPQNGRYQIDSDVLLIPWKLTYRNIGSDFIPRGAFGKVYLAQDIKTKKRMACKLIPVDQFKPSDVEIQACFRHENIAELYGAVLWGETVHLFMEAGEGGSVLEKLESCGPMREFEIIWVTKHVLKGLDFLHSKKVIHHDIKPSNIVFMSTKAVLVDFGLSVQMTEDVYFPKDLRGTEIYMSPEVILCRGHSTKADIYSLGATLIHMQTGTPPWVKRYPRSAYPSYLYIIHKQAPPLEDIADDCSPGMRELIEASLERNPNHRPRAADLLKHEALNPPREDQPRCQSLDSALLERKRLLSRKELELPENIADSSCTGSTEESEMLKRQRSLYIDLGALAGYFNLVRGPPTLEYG
Sequence of FGFR2 (human) (P21802 whole entry, looked up): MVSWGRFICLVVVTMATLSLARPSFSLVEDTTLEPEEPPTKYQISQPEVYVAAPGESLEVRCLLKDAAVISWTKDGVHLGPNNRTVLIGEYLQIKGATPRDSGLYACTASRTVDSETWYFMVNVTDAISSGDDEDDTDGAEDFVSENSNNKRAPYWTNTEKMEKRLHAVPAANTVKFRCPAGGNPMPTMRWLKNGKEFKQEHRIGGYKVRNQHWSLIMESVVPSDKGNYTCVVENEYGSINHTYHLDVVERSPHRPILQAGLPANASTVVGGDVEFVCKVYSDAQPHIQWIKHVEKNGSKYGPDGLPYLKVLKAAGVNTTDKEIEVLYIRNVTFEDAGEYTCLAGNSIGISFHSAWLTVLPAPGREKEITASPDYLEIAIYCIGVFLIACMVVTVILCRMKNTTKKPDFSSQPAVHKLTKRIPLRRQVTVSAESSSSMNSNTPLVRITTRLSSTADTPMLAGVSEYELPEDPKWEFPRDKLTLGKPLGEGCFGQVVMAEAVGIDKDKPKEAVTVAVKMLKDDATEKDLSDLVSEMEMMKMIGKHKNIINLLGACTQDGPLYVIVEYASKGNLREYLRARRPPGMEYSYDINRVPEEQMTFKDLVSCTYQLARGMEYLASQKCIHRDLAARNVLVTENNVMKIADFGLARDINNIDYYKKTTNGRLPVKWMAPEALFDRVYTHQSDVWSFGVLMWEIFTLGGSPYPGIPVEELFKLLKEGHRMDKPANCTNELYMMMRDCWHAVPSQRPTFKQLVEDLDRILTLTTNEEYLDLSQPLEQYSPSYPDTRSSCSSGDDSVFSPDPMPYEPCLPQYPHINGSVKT
Sequence of LYN (human) (P07948 whole entry, looked up): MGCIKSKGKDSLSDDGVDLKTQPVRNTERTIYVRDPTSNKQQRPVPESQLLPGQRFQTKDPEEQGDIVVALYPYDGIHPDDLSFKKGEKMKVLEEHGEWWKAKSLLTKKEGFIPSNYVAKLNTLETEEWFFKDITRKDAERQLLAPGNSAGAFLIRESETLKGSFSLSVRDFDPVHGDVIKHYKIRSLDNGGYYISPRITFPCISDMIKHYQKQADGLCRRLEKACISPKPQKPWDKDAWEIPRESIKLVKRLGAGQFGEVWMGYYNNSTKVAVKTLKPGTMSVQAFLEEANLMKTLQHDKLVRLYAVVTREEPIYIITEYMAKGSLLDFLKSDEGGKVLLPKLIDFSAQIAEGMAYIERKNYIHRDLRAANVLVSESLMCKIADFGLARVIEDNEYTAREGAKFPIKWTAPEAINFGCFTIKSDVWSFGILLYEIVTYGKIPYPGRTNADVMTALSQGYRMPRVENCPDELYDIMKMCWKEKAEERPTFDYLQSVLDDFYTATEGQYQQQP
Sequence of STK3 (human) (Q13188 whole entry, looked up): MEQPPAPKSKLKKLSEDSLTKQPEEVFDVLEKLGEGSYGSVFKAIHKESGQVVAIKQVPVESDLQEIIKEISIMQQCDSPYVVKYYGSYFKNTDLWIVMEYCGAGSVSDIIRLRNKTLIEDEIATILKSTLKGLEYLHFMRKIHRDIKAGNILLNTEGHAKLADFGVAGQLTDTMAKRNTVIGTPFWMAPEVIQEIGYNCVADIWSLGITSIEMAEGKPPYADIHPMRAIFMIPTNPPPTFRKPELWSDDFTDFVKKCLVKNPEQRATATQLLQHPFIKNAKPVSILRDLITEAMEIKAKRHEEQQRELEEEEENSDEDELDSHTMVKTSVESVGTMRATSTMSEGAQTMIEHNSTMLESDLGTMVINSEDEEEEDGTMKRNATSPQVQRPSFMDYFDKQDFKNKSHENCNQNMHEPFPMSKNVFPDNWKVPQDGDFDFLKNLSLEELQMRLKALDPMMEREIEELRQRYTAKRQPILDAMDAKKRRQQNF
Sequence of CHEK2 (human) (O96017 whole entry, looked up): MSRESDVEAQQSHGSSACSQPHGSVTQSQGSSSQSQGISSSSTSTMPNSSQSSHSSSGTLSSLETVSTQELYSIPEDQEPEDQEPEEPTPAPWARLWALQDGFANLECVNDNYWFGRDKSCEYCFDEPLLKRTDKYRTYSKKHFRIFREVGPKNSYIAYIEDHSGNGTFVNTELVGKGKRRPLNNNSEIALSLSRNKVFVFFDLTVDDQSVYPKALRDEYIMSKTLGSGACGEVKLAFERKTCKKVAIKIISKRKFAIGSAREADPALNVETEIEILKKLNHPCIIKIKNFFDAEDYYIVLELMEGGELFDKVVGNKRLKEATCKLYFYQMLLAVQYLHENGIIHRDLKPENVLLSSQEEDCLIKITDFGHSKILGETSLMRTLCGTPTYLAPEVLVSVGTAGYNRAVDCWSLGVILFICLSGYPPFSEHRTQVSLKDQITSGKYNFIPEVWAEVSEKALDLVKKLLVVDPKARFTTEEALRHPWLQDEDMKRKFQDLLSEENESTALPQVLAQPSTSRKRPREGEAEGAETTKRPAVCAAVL
Sequence of IRAK4 (human) (Q9NWZ3 whole entry, looked up): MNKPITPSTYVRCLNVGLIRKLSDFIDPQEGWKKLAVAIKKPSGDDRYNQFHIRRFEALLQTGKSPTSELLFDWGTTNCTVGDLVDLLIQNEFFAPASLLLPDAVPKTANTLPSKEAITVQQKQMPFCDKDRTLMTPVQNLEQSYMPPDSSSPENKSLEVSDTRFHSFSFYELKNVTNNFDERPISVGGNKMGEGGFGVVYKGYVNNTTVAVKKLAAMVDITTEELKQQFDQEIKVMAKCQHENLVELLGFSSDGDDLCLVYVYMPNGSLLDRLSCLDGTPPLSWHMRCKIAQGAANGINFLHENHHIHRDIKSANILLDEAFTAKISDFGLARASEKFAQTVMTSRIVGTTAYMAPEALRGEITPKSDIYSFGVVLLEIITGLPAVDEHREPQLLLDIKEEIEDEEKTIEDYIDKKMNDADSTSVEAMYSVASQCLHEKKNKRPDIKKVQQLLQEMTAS

CNc1cc2c(Nc3cccc(Br)c3)ncnc2cn1
residual activity (CHEK2 (human)): 85.7%
residual activity (EPHA5 (human)): 106%
residual activity (DAPK3 (human)): 90.9%
residual activity (FGFR4 (human)): 93.7%
residual activity (GSK3B (human)): 89.6%
residual activity (LYN (human)): 63.9% and 81.9%
residual activity (SRC (human)): 94.6%
residual activity (DYRK2 (human)): 89.9%
residual activity (CSNK2A1 (human)): 94.3%
residual activity (MAP3K8 (human)): 90.2%
residual activity (BTK (human)): 94.7%
residual activity (JAK3 JH1 JH2 (human)): 103%
residual activity (MST1R (human)): 73.9%
residual activity (MLTK (human)): 82.3%
residual activity (MAPK12 (human)): 93.6%
residual activity (ULK3 (human)): 95.8%
residual activity (NEK3 (human)): 101%
residual activity (IRAK4 (human)): 82.6%
residual activity (FGFR2 (human)): 96.3%
residual activity (STK3 (human)): 99.9%
residual activity (CSK (human)): 82%
residual activity (BMX (human)): 93.9%
residual activity (FER (human)): 97.1%
residual activity (PKN1 (human)): 103%
residual activity (EPHB4 (human)): 99.6%
residual activity (CDK6 CCND3 (human)): 90.8%
residual activity (GRK7 (human)): 83.8%
residual activity (GRK4 (human)): 98.2%
residual activity (PNCK (human)): 100%
residual activity (PRKG1 (human)): 107% and 92.7%
residual activity (AURKA (human)): 85.1%
residual activity (RPS6KA4 KD2 (human)): 109%
residual activity (TLK2 (human)): 114%
residual activity (DMPK (human)): 112%
residual activity (MARK2 (human)): 90.9%
residual activity (PLK1 (human)): 93.5%
residual activity (RPS6KA2 KD1 KD2 (human)): 83.5%
residual activity (STK10 (human)): 31.8%
residual activity (HIPK1 (human)): 96.5%
residual activity (TYRO3 (human)): 98.8%
residual activity (MYLK (human)): 79.5%
residual activity (SGK2 (human)): 96.6%

O=C1NC(=O)C(c2cn(CCCn3ccnc3)c3ccccc23)=C1Nc1ccccc1
residual activity (CHEK2 (human)): 88.3%
residual activity (EPHA5 (human)): 96.1%
residual activity (DAPK3 (human)): 104%
residual activity (FGFR4 (human)): 74.6%
residual activity (GSK3B (human)): 14.2%
residual activity (LYN (human)): 103% and 96.4%
residual activity (SRC (human)): 100%
residual activity (DYRK2 (human)): 97.3%
residual activity (CSNK2A1 (human)): 100%
residual activity (MAP3K8 (human)): 100%
residual activity (BTK (human)): 105%
residual activity (JAK3 JH1 JH2 (human)): 7.97%
residual activity (MST1R (human)): 93.5%
residual activity (MLTK (human)): 104%
residual activity (MAPK12 (human)): 102%
residual activity (ULK3 (human)): 84.7%
residual activity (NEK3 (human)): 99.5%
residual activity (IRAK4 (human)): 89.5%
residual activity (FGFR2 (human)): 103%
residual activity (STK3 (human)): 52%
residual activity (CSK (human)): 110%
residual activity (BMX (human)): 90%
residual activity (FER (human)): 56.1%
residual activity (PKN1 (human)): 22.7%
residual activity (EPHB4 (human)): 87.9%
residual activity (CDK6 CCND3 (human)): 104%
residual activity (GRK7 (human)): 86.3%
residual activity (GRK4 (human)): 91.6%
residual activity (PNCK (human)): 90.6%
residual activity (PRKG1 (human)): 88.8% and 89.3%
residual activity (AURKA (human)): 78.8%
residual activity (RPS6KA4 KD2 (human)): 44.4%
residual activity (TLK2 (human)): 74.1%
residual activity (DMPK (human)): 104%
residual activity (MARK2 (human)): 97.1%
residual activity (PLK1 (human)): 99.5%
residual activity (RPS6KA2 KD1 KD2 (human)): 3.17%
residual activity (STK10 (human)): 11.5%
residual activity (HIPK1 (human)): 102%
residual activity (TYRO3 (human)): 99.6%
residual activity (MYLK (human)): 81.6%
residual activity (SGK2 (human)): 82.4%

O=C1NC(=O)/C(=C/c2ccc3c(c2)OC(F)(F)O3)S1
residual activity (CHEK2 (human)): 97.9%
residual activity (EPHA5 (human)): 100%
residual activity (DAPK3 (human)): 104%
residual activity (FGFR4 (human)): 91%
residual activity (GSK3B (human)): 92.3%
residual activity (LYN (human)): 98.1% and 99.9%
residual activity (SRC (human)): 98.4%
residual activity (DYRK2 (human)): 98.6%
residual activity (CSNK2A1 (human)): 22.6%
residual activity (MAP3K8 (human)): 93%
residual activity (BTK (human)): 94.3%
residual activity (JAK3 JH1 JH2 (human)): 98.6%
residual activity (MST1R (human)): 100%
residual activity (MLTK (human)): 97.6%
residual activity (MAPK12 (human)): 92.8%
residual activity (ULK3 (human)): 109%
residual activity (NEK3 (human)): 92.6%
residual activity (IRAK4 (human)): 99.2%
residual activity (FGFR2 (human)): 97.6%
residual activity (STK3 (human)): 100%
residual activity (CSK (human)): 88%
residual activity (BMX (human)): 99.6%
residual activity (FER (human)): 97.2%
residual activity (PKN1 (human)): 98.5%
residual activity (EPHB4 (human)): 100%
residual activity (CDK6 CCND3 (human)): 92.6%
residual activity (GRK7 (human)): 102%
residual activity (GRK4 (human)): 102%
residual activity (PNCK (human)): 96%
residual activity (PRKG1 (human)): 109% and 95.6%
residual activity (AURKA (human)): 92.4%
residual activity (RPS6KA4 KD2 (human)): 108%
residual activity (TLK2 (human)): 104%
residual activity (DMPK (human)): 97.5%
residual activity (MARK2 (human)): 96.8%
residual activity (PLK1 (human)): 92.9%
residual activity (RPS6KA2 KD1 KD2 (human)): 97.3%
residual activity (STK10 (human)): 98.6%
residual activity (HIPK1 (human)): 95.9%
residual activity (TYRO3 (human)): 99.6%
residual activity (MYLK (human)): 99.4%
residual activity (SGK2 (human)): 82.2%
